Measured values taken from ChEMBL document CHEMBL4385643, “Design of a brain-penetrant CDK4/6 inhibitor for glioblastoma” (Bioorg Med Chem Lett, 2019).

Assays:
[1] = biological target: Serine/threonine-protein kinase Sgk3 (Homo sapiens) (UniProt Q96BR1); assay: Inhibition of recombinant human GST-tagged SGK3 catalytic domain (87 to 496 residues) expressed in baculovirus expression system at 0.1 uM using serine/threonine-6 peptide as substrate incubated for 60 mins by Z'-LYTE assay relative to control
[2] = biological target: Activin receptor type-1 (Homo sapiens) (UniProt Q04771); assay: Inhibition of tracer 236 binding to recombinant human GST-tagged ALK2 catalytic domain (145 to 509 residues) expressed in baculovirus at 0.1 uM measured after 60 mins by Lanthascreen assay relative to control
[3] = biological target: Serine/threonine-protein kinase MRCK alpha (Homo sapiens) (UniProt Q5VT25); assay: Inhibition of recombinant human His-tagged MRCKalpha catalytic domain (1 to 473 residues) expressed in baculovirus expression system at 0.1 uM using serine/threonine-13 peptide as substrate incubated for 60 mins by Z'-LYTE assay relative to control
[4] = biological target: Ephrin type-A receptor 7 (Homo sapiens) (UniProt Q15375); assay: Inhibition of tracer 236 binding to recombinant human His-tagged EPHA7 (579 to 998 residues) expressed in baculovirus expression system at 0.1 uM measured after 60 mins by Lanthascreen assay relative to control
[5] = biological target: cGMP-dependent protein kinase 1 (Homo sapiens) (UniProt Q13976); assay: Inhibition of recombinant full length human GST-tagged PKG1 alpha expressed in baculovirus expression system at 0.1 uM using CREBtide as substrate 60 mins by Lanthascreen assay relative to control
[6] = biological target: CDK9/cyclin T1 (Homo sapiens) (UniProt O60563+P50750); assay: Inhibition of recombinant full length human His-tagged CDK9/CyclinT1 expressed in baculovirus expression system at 0.1 uM using CDK7/9tide peptide as substrate incubated for 60 mins by Adapta assay relative to control
[7] = biological target: Serine/threonine-protein kinase NLK (Homo sapiens) (UniProt Q9UBE8); assay: Inhibition of tracer 178 binding to recombinant full length human GST-tagged NLK expressed by baculovirus expression system at 0.1 uM measured after 60 mins by Lanthascreen assay relative to control
[8] = biological target: Ephrin type-B receptor 3 (Homo sapiens) (UniProt P54753); assay: Inhibition of recombinant human GST-tagged EPHB3 catalytic domain (623 to 907 residues) expressed in baculovirus expression system at 0.1 uM using tyrosine-2 peptide as substrate incubated for 60 mins by Z'-LYTE assay relative to control
[9] = biological target: MAP kinase-interacting serine/threonine-protein kinase 2 (Homo sapiens) (UniProt Q9HBH9); assay: Inhibition of tracer 236 binding to full length human GST-tagged MKNK2 expressed in baculovirus expression system at 0.1 uM measured after 60 mins by Lanthascreen assay relative to control
[10] = biological target: Protein kinase C eta type (Homo sapiens) (UniProt P24723); assay: Inhibition of recombinant full length human His-tagged PKCeta expressed in baculovirus expression system at 0.1 uM using serine/threonine-7 peptide as substrate incubated for 60 mins by Z'-LYTE assay relative to control
[11] = biological target: Phosphatidylinositol 4,5-bisphosphate 3-kinase catalytic subunit alpha isoform (Homo sapiens) (UniProt P42336); assay: Inhibition of recombinant full length human GST-tagged PI3Kalpha expressed in baculovirus expression system at 0.1 uM using PI Lipid Kinase as substrate incubated for 60 mins by Adapta assay relative to control
[12] = biological target: Mitogen-activated protein kinase kinase kinase 9 (Homo sapiens) (UniProt P80192); assay: Inhibition of recombinant human GST-tagged MLK1 catalytic domain (1 to 500 residues) expressed in baculovirus expression system at 0.1 uM using serine/threonine-7 peptide as substrate incubated for 60 mins by Z'-LYTE assay relative to control
[13] = biological target: Mitogen-activated protein kinase kinase kinase 8 (Homo sapiens) (UniProt P41279); assay: Inhibition of recombinant human GST-tagged TPL2 catalytic domain (30 to 397 residues) expressed in baculovirus expression system at 0.1 uM using serine/threonine-3 peptide as substrate incubated for 60 mins by Z'-LYTE assay relative to control
[14] = biological target: Cytoplasmic tyrosine-protein kinase BMX (Homo sapiens) (UniProt P51813); assay: Inhibition of recombinant full length human His-tagged BMX expressed in baculovirus expression system at 0.1 uM using tyrosine-1 peptide as substrate incubated for 60 mins by Z'-LYTE assay relative to control
[15] = biological target: Tyrosine-protein kinase SYK (Homo sapiens) (UniProt P43405); assay: Inhibition of recombinant full length human GST-tagged SYK expressed in baculovirus expression system at 0.1 uM using tyrosine-2 peptide as substrate incubated for 60 mins by Z'-LYTE assay relative to control
[16] = biological target: Calcium/calmodulin-dependent protein kinase type 1 (Homo sapiens) (UniProt Q14012); assay: Inhibition of recombinant full length human His-tagged CAMK1 expressed in baculovirus expression system at 0.1 uM using ZIPtide peptide as substrate incubated for 60 mins by Adapta assay relative to control
[17] = biological target: Inhibitor of nuclear factor kappa-B kinase subunit beta (Homo sapiens) (UniProt O14920); assay: Inhibition of recombinant full length human GST-tagged IKKbeta expressed in baculovirus expression system at 0.1 uM using serine/threonine-5 peptide as substrate incubated for 60 mins by Z'-LYTE assay relative to control
[18] = biological target: Serine/threonine-protein kinase WNK2 (Homo sapiens) (UniProt Q9Y3S1); assay: Inhibition of tracer 1710 binding to recombinant human His-tagged WNK2 catalytic domain (166 to 489 residues) expressed in baculovirus expression system at 0.1 uM measured after 60 mins by Lanthascreen assay relative to control
[19] = biological target: Mitogen-activated protein kinase 10 (Homo sapiens) (UniProt P53779); assay: Inhibition of recombinant full length human GST-tagged JNK3 expressed in baculovirus expression system at 0.1 uM using serine/threonine-4 peptide as substrate incubated for 60 mins by Z'-LYTE assay relative to control
[20] = biological target: Inhibitor of nuclear factor kappa-B kinase subunit epsilon (Homo sapiens) (UniProt Q14164); assay: Inhibition of recombinant full length human GST-tagged IKKepsilon expressed in baculovirus expression system at 0.1 uM using serine/threonine-11 peptide as substrate incubated for 60 mins by Z'-LYTE assay relative to control
[21] = system: Epidermal growth factor receptor (Homo sapiens), P00533 [L858R,T790M]; assay: Inhibition of recombinant human GST-tagged EGFR T790M/L858R mutant (668 to 1210: T790M/L858R residues)expressed in baculovirus expression system at 0.1 uM using tyrosine-4 peptide as substrate incubated for 60 mins by Z'-LYTE assay relative to control
[22] = biological target: Tyrosine-protein kinase JAK2 (Homo sapiens) (UniProt O60674); assay: Inhibition of recombinant human GST-tagged JAK2 catalytic domain (809 to 1153+9 residues) expressed in baculovirus expression system at 0.1 uM using tyrosine-6 peptide as substrate incubated for 60 mins by Z'-LYTE assay relative to control
[23] = biological target: Ephrin type-A receptor 1 (Homo sapiens) (UniProt P21709); assay: Inhibition of recombinant human GST-tagged EPHA1 (568 to 976 residues) expressed in baculovirus expression system at 0.1 uM using tyrosine-2 peptide as substrate incubated for 60 mins by Z'-LYTE assay relative to control

Sequence of Inhibitor of nuclear factor kappa-B kinase subunit epsilon (Homo sapiens) (Q14164 whole entry): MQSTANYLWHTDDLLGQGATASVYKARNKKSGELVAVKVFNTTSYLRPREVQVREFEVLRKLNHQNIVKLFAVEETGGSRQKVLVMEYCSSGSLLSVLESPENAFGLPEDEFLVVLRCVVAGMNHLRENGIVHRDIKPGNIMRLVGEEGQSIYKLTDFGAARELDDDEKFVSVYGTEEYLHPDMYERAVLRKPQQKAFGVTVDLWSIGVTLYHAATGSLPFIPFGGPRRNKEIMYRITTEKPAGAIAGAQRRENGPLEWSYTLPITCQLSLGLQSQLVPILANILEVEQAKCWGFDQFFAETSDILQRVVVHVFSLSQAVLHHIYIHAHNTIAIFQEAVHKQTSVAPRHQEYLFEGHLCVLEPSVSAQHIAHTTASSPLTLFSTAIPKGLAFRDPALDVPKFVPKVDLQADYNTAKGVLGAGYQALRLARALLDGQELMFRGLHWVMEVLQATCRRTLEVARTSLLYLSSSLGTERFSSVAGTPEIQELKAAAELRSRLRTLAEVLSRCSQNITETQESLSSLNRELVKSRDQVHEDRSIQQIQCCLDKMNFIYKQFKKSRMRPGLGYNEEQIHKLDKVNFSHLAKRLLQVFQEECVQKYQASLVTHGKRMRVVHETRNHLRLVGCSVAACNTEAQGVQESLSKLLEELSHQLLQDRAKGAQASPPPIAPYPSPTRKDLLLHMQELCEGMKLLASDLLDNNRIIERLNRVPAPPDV
Sequence of Cytoplasmic tyrosine-protein kinase BMX (Homo sapiens) (P51813 whole entry): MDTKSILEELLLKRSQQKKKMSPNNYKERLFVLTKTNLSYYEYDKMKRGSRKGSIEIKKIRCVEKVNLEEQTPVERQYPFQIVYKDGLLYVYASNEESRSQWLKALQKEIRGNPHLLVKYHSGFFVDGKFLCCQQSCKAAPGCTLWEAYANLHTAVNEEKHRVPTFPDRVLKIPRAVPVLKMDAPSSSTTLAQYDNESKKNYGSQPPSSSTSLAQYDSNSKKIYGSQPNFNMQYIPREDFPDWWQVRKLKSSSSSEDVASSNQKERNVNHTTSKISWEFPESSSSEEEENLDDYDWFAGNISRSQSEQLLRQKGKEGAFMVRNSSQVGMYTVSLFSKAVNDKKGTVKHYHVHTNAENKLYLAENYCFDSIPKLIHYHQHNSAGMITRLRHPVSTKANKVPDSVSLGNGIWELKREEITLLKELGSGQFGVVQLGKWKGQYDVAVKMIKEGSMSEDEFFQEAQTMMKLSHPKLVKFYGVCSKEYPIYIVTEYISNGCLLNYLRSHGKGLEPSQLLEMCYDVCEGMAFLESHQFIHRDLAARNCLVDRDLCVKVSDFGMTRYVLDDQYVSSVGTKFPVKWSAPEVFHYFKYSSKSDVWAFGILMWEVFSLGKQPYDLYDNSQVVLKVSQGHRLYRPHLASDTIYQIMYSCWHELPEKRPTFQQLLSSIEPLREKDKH
Sequence of Serine/threonine-protein kinase MRCK alpha (Homo sapiens) (Q5VT25 whole entry, the tested form may be a part): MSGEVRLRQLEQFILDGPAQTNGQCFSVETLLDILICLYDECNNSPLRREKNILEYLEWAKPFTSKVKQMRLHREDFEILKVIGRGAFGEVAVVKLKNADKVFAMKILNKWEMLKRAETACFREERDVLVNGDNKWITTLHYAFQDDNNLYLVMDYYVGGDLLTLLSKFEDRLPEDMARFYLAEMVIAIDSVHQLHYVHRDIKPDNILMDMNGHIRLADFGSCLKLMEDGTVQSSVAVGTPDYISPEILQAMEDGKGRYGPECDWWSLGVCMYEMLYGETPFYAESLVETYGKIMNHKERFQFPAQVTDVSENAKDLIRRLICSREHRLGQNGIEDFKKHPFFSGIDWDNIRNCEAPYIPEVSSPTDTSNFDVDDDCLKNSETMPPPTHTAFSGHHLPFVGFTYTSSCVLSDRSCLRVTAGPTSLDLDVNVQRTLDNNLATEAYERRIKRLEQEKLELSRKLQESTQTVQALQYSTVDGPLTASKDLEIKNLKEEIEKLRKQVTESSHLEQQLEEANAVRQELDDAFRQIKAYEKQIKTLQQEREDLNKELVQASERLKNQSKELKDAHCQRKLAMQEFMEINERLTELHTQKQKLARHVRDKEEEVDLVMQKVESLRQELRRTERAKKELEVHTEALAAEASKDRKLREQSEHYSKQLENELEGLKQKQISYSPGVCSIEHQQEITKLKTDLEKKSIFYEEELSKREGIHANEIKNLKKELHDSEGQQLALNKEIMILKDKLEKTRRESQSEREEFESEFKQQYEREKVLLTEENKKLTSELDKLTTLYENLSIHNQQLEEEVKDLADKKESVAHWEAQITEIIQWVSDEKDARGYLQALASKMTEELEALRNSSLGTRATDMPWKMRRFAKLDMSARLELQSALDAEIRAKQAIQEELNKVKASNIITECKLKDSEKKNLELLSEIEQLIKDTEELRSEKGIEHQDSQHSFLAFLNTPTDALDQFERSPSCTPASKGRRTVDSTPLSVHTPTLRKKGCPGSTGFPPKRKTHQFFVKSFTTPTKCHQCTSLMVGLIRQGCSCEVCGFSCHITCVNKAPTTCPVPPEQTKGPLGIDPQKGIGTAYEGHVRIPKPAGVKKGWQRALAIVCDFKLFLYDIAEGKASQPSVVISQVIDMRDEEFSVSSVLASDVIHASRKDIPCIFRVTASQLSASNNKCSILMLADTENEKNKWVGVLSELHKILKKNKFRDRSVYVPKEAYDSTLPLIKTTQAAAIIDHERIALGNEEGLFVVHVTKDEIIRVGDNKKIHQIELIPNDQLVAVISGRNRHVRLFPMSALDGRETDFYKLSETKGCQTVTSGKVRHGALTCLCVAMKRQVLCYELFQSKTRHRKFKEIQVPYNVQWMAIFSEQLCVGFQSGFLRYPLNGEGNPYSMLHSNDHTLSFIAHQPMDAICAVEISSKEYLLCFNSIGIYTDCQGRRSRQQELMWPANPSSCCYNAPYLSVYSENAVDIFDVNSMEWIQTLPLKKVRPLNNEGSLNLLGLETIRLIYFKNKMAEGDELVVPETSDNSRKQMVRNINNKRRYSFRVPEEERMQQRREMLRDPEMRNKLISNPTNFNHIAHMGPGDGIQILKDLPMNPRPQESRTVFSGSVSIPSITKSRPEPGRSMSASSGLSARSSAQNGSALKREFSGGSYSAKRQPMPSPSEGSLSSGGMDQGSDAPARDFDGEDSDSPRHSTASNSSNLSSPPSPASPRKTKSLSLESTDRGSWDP
Sequence of Serine/threonine-protein kinase NLK (Homo sapiens) (Q9UBE8 whole entry, the tested form may be a part): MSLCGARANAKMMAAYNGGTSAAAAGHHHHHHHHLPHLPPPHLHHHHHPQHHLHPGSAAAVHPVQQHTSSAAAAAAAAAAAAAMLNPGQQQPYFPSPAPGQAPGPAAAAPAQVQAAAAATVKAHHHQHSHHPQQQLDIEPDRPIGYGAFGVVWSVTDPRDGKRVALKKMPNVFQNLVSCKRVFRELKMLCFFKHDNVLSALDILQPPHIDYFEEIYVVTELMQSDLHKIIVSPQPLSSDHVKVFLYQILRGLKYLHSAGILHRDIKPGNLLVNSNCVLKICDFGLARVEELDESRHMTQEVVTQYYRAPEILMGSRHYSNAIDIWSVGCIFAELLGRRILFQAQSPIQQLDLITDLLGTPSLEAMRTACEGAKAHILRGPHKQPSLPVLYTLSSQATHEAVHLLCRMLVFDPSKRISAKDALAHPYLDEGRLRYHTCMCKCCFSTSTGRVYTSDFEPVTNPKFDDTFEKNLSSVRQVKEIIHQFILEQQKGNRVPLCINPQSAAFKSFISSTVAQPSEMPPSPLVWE
Sequence of Mitogen-activated protein kinase kinase kinase 9 (Homo sapiens) (P80192 whole entry, looked up, the tested form may be a part): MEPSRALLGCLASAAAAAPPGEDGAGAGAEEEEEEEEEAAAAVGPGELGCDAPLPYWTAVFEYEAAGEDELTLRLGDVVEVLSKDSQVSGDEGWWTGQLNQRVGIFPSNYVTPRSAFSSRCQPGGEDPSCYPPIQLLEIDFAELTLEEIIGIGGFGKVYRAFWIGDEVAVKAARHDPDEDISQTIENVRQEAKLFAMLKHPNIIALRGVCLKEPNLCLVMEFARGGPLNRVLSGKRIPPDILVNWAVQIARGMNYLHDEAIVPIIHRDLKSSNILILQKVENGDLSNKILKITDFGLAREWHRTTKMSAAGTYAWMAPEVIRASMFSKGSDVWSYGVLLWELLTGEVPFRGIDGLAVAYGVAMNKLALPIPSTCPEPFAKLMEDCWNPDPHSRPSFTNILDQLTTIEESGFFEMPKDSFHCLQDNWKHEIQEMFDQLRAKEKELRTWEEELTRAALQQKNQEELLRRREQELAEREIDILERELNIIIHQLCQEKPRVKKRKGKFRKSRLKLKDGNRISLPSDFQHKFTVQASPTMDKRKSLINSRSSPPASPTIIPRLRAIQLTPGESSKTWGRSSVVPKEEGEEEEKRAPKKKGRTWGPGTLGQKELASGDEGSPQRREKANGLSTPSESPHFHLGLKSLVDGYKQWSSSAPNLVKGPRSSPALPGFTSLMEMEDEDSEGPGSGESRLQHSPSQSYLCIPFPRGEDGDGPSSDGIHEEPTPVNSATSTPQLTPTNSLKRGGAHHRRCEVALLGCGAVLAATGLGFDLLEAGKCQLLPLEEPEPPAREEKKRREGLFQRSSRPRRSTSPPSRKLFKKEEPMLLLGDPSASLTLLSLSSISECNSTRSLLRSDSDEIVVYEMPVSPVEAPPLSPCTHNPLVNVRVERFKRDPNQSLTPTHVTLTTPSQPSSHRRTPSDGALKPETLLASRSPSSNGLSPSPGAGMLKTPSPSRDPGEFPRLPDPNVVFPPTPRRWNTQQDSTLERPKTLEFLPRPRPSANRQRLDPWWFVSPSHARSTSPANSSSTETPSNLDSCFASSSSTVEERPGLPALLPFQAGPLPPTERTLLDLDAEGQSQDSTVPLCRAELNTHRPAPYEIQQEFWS

| Compound | inhibition [1] | inhibition [2] | inhibition [3] | inhibition [4] | inhibition [5] | inhibition [6] | inhibition [7] | inhibition [8] | inhibition [9] | inhibition [10] | inhibition [11] | inhibition [12] | inhibition [13] | inhibition [14] | inhibition [15] | inhibition [16] | inhibition [17] | inhibition [18] | inhibition [19] | inhibition [20] | other results |
| --- | --- | --- | --- | --- | --- | --- | --- | --- | --- | --- | --- | --- | --- | --- | --- | --- | --- | --- | --- | --- | --- |
| CCN1CC2(C1)CN(c1ccc(Nc3ncc(F)c(-c4cnn5c4[C@H](C)CCCC5)n3)nc1)C2 | 7% | 28% | 1% | 5.5% | 6% | 59.5% | 22.5% | 1% | 75% | 15.5% | 1.5% | 47% | 26% | -2% | -3% | 10.5% | 5% | 0.5% | 66.5% | 3.5% | inhibition [21]: 32.5%; inhibition [22]: 18.5%; inhibition [23]: 9.5% |
| CCN1CCN(Cc2ccc(Nc3ncc(F)c(-c4cc(F)c5nc(C)n(C(C)C)c5c4)n3)nc2)CC1 [ABEMACICLIB] | 12% | 30.5% | 31.5% | 11.7% | 1.5% | 92.5% | 2.2% | -0.5% | 18.3% | 35% | 4% | 11.5% | 11% | 5.5% | 6% | 26.7% | 12.5% | 2.7% | 59.1% | 8% | inhibition [21]: 46%; inhibition [22]: 6%; inhibition [23]: 8% |
